Test results: article PMC8766756, “Insights on Cancer Cell Inhibition, Subcellular Activities, and Kinase Profile of Phenylacetamides Pending 1H-Imidazol-5-One Variants” (Frontiers in Pharmacology, 2022)

Biological target: T1, Lmr1 (Q6ZMQ8) (Homo sapiens, UniProt Q6ZMQ8)
T1 construct: purchased PamGene (PamChip PTK array, Upstream Kinase Analysis)
T1 sequence (Q6ZMQ8 1-1374): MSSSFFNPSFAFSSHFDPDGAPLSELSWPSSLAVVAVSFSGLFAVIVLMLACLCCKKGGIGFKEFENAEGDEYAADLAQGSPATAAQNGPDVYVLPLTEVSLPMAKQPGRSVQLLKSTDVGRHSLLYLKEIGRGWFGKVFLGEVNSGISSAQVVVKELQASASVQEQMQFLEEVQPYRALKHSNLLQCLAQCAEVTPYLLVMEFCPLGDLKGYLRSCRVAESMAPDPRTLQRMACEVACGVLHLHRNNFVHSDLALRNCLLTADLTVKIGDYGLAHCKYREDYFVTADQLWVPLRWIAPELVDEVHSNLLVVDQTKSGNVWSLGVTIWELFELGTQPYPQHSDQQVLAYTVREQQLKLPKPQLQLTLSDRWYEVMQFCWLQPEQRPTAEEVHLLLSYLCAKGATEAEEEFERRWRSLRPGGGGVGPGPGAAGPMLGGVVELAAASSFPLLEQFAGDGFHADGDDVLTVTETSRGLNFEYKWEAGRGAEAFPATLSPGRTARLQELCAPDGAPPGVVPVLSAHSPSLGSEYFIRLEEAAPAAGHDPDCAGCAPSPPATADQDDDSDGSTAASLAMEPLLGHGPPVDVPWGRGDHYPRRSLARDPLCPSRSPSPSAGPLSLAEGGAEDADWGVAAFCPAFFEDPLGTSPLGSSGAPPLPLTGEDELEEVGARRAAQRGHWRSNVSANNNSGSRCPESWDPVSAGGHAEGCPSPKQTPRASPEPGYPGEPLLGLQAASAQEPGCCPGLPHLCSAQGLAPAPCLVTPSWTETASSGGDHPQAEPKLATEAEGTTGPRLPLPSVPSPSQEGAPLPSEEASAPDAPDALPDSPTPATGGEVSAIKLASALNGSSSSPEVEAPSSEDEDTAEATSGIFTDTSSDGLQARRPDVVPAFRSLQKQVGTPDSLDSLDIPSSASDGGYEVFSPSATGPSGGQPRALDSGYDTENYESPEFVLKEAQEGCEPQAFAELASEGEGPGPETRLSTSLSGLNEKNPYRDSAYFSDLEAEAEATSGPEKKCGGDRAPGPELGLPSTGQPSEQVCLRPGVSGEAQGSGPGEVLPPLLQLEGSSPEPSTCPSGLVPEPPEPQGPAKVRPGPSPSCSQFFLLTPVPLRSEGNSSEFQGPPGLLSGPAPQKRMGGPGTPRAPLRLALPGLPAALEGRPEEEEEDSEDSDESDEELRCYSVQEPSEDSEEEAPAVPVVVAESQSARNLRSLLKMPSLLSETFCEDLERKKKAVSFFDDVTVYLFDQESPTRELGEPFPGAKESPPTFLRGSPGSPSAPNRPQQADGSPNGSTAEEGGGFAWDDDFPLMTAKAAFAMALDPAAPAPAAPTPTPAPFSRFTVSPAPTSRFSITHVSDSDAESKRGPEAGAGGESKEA
Experiment: PamChip tyrosine kinase microarray
Type: biochemical
Conditions: 0.1 µM, HL60 lysate
Procedure, shortened: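 HL60 (AML) cell lysate was spiked with compound at 0.001, 0.01, 0.1, 1, 10 and 50 µM, or 2% v/v DMSO as control, then profiled in technical replicates on a tyrosine kinase peptide array of 196 phosphosites. Kinase activity was inferred from peptide-set changes using an upstream kinase tool.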

Question: Which results are given for `COc1ccc(/C=C2\N=C(C)N(c3ccc(CC(=O)NCc4ccccc4)cc3)C2=O)cc1` [Compound 4c, (Z)-N-Benzyl-2-(4-(4-(4-methoxybenzylidene)-2-methyl-5-oxo-4,5-dihydro-1H-imidazol-1-yl)phenyl)acetamide]?
Answer: Mean Final score (Kinase score): 2.52; Mean Kinase Statistic: -1.33; Mean Significance Score: 1.989; Mean Specificity Score: 0.4793
